From patent US8993574B2, “Pyrrole antifungal agents” (F2G Ltd, priority 2008, dated 2015) come the findings set out here.

≈ marks a conversion by molar mass, not a printed value.

Common to all, as to format: cell-based
In assay [1] the test system is Aspergillus flavus. Put plainly: MIC, YAG medium. The following applies: 24 h at 35° C, MIC banded into grades. In a few lines:
(§1)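 Broth microdilution in YAG medium tests compound over 50-0.05 mg/L against spores at 1−2×10^4 cfu/mL. After 24 h incubation at 35° C, optical density at 485 nm gives growth, and the MIC is the lowest concentration reducing it by more than 70% relative to untreated control.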

Assay [2] has as its system Aspergillus fumigatus AF210. Put plainly: MIC, YAG medium. The following applies: 24 h at 35° C, MIC banded into grades. The essentials:
as §1

Assay [3] deals with Aspergillus fumigatus AF293. Put plainly: MIC, YAG medium. The following applies: 24 h at 35° C, MIC banded into grades. The essentials: as §1
Assay [4] relates to Aspergillus niger. The experiment in a line: MIC, YAG medium. The following applies: 24 h at 35° C, MIC banded into grades. In a few lines:
as §1

Assay [5] relates to Aspergillus terreus AT49. Put plainly: MIC, YAG medium. The following applies: 24 h at 35° C, MIC banded into grades. In a few lines:
as §1

Assay [6] relates to Aspergillus terreus AT4. The experiment in a line: MIC, YAG medium. The following applies: 24 h at 35° C, MIC banded into grades. In a few lines:
as §1

Assay [7] relates to Aspergillus flavus. The experiment in a line: MIC, RPMI medium. The following applies: MIC banded into grades. The essentials:
(§2)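 OD485-based endpoint after 24-48 h/35° C; MIC = lowest concentration, >80% inhibition relative to drug-free. RPMI/2% glucose/0.135 M MOPS pH 7.0; 1−2×10^4 cfu/mL; range 50-0.05 mg/L.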

Assay [8] has as its system Aspergillus fumigatus AF210. Put plainly: MIC, RPMI medium. The following applies: for MIC grade, A. fumigatus 210: MIC banded into grades. The essentials:
as §2

Assay [9] has as its system Aspergillus fumigatus AF293. The experiment in a line: MIC, RPMI medium. The following applies: for MIC grade, A. fumigatus: MIC banded into grades. In a few lines: as §2
Assay [10] has as its system Aspergillus niger. Put plainly: MIC, RPMI medium. The following applies: MIC banded into grades. The essentials: as §2
The subject of assay [11] is Aspergillus terreus AT49. The experiment in a line: MIC, RPMI medium. The following applies: for MIC grade, A. terreus 49: MIC banded into grades. The essentials: as §2
Assay [12] has as its system Aspergillus terreus AT4. Put plainly: MIC, RPMI medium. The following applies: for MIC grade, A. terreus: MIC banded into grades. In a few lines:
as §2

Assay [13] deals with Candida albicans. Put plainly: MIC, RPMI medium. The following applies: 24-48 h at 35° C., >80% growth inhibition, banded into grades. In a few lines: as §2
The subject of assay [14] is Candida glabrata. The experiment in a line: MIC, RPMI medium. The following applies: 24-48 h at 35° C., >80% growth inhibition, banded into grades. The essentials:
as §2

Assay [15] deals with Candida krusei. Put plainly: MIC, RPMI medium. The following applies: 24-48 h at 35° C., >80% growth inhibition, banded into grades. The essentials: as §2
Assay [16] has as its system Candida parapsilosis. The experiment in a line: MIC, RPMI medium. The following applies: 24-48 h at 35° C., >80% growth inhibition, banded into grades. The essentials: as §2
Assay [17] relates to Candida tropicalis. The experiment in a line: MIC, RPMI medium. The following applies: 24-48 h at 35° C., >80% growth inhibition, banded into grades. The essentials:
as §2

Setting [18] is: Aspergillus niger, read-out: MIC grade, A. niger.

As usually defined, the MIC is the least concentration at which growth counts as inhibited. As for `COCCn1ccc(-c2cccc(Cl)c2)c1C(=O)C(=O)Nc1ccc(N2CCN(c3cc(C)cc(C)n3)CC2)cc1` [Example 70, 2-[3-(3-Chloro-phenyl)-1-(2-methoxy-ethyl)-1H-pyrrol-2-yl]-N-{4-[4-(4,6-dimethyl-pyridin-2-yl)-piperazin-1-yl]-phenyl}-2-oxo-acetamide], the MIC in assay [1] (Aspergillus flavus, 24 h, read-out: MIC grade, A. flavus) is 1 to 10 µg/mL (≈ 1.75 to 17.5 µM); in assay [2] (Aspergillus fumigatus, read-out: MIC grade, A. fumigatus 210), < 1 µg/mL; in assay [3] (Aspergillus fumigatus, read-out: MIC grade, A. fumigatus), < 1 µg/mL; in [4] (setting [18]), > 10 µg/mL; in assay [5] (Aspergillus terreus, read-out: MIC grade, A. terreus 49) it was < 1 µg/mL; in assay [6] (Aspergillus terreus, read-out: MIC grade, A. terreus), < 1 µg/mL. The MIC is 1 to 10 µg/mL (≈ 1.75 to 17.5 µM) in [7] (Aspergillus flavus, read-out: MIC grade, A. flavus); 1 to 10 µg/mL (≈ 1.75 to 17.5 µM) in assay [8] (Aspergillus fumigatus, AF210, MIC banded into grades, read-out: MIC grade, A. fumigatus 210); 1 to 10 µg/mL (≈ 1.75 to 17.5 µM) in [9] (Aspergillus fumigatus, AF293, MIC banded into grades, read-out: MIC grade, A. fumigatus); > 10 µg/mL in [10] (setting [18]); 1 to 10 µg/mL (≈ 1.75 to 17.5 µM) in [11] (Aspergillus terreus, AT49, MIC banded into grades, read-out: MIC grade, A. terreus 49); 1 to 10 µg/mL (≈ 1.75 to 17.5 µM) in [12] (Aspergillus terreus, AT4, MIC banded into grades, read-out: MIC grade, A. terreus). Moreover, the MIC is 1 to 10 µg/mL (≈ 1.75 to 17.5 µM) in assay [13] (Candida albicans); < 1 µg/mL in assay [14] (Nakaseomyces glabratus); 1 to 10 µg/mL (≈ 1.75 to 17.5 µM) in assay [15] (Pichia kudriavzevii); < 1 µg/mL in assay [16] (Lodderomyces parapsilosis); 1 to 10 µg/mL (≈ 1.75 to 17.5 µM) in assay [17] (Candida tropicalis).

For the compound `COC(=O)Cn1ccc(CC(C)C)c1C(=O)C(=O)Nc1ccc(N2CCN(c3cc(C)cc(C)n3)CC2)cc1` [Example 89, (2-{4-[4-(4,6-Dimethyl-pyridin-2-yl)-piperazin-1-yl]-phenylaminooxalyl}-3-isobutyl-pyrrol-1-yl)-acetic acid methyl ester], the “MIC grade, A. flavus” value in [1] and in assay [7] was 1 (a grade of 1 represents an MIC of greater than 10 mg/L) each time. Moreover, the results for the “MIC grade, A. fumigatus 210” value in assay [2] and in [8] were 3 (A grade of 3 represents an MIC of less than 1 mg/L) and 2 (A grade of 2 represents an MIC of from 1 to 10 mg/L), respectively. Besides, the “MIC grade, A. fumigatus” value was 3 (A grade of 3 represents an MIC of less than 1 mg/L) in assay [3] and 2 (A grade of 2 represents an MIC of from 1 to 10 mg/L) in [9]. For the same compound, the “MIC grade, A. niger” value in assay [4] and in assay [10] was 2 (A grade of 2 represents an MIC of from 1 to 10 mg/L) throughout. Besides, the “MIC grade, A. terreus 49” value is reported as 2 (A grade of 2 represents an MIC of from 1 to 10 mg/L) in assay [5] and 1 (a grade of 1 represents an MIC of greater than 10 mg/L) in assay [11]. For the same compound, the results for the “MIC grade, A. terreus” value in assay [6] and in assay [12] were 2 (A grade of 2 represents an MIC of from 1 to 10 mg/L) and 1 (a grade of 1 represents an MIC of greater than 10 mg/L), respectively. In addition, the “Candida MIC, C. albicans” value in assay [13] is given as 2 (A grade of 2 represents an MIC of from 1 to 10 mg/L). Besides, the “Candida MIC, C. glabrata” value in [14] is given as 3 (A grade of 3 represents an MIC of less than 1 mg/L). In addition, the “Candida MIC, C. krusei” value in assay [15] is given as 3 (A grade of 3 represents an MIC of less than 1 mg/L). Further, in assay [16], the “Candida MIC, C. parapsilosis” value is 3 (A grade of 3 represents an MIC of less than 1 mg/L). In addition, the “Candida MIC, C. tropicalis” value in assay [17] is on record as 3 (A grade of 3 represents an MIC of less than 1 mg/L).

For the compound `COCCn1c(C)cc(-c2ccccc2)c1C(=O)C(=O)Nc1ccc(N2CCN(c3ccc(CN4CCOCC4)cn3)CC2)cc1` [Example 103, 2-[1-(2-Methoxy-ethyl)-5-methyl-3-pheny-1H-pyrrol-2-yl]-N-{4-[4-(5-morpholin-4-ylmethyl-pyridin-2-yl)-piperazin-1-yl]-phenyl}-2-oxo-acetamide], the “MIC grade, A. flavus” value in [1] and in [7] was 1 (a grade of 1 represents an MIC of greater than 10 mg/L) each time. Also, the “MIC grade, A. fumigatus 210” value was 3 (A grade of 3 represents an MIC of less than 1 mg/L) in assay [2] and 2 (A grade of 2 represents an MIC of from 1 to 10 mg/L) in assay [8]. The “MIC grade, A. fumigatus” value in assay [3] is 3 (A grade of 3 represents an MIC of less than 1 mg/L); in [9], 2 (A grade of 2 represents an MIC of from 1 to 10 mg/L). The figures for the “MIC grade, A. niger” value in [4] and in assay [10] were 1 (a grade of 1 represents an MIC of greater than 10 mg/L) and 3 (A grade of 3 represents an MIC of less than 1 mg/L), respectively. Further, the “MIC grade, A. terreus 49” value in assay [5] and in assay [11] was 2 (A grade of 2 represents an MIC of from 1 to 10 mg/L) throughout. The “MIC grade, A. terreus” value in assay [6] and in assay [12] was 2 (A grade of 2 represents an MIC of from 1 to 10 mg/L) in each case. For the same compound, in [13], the “Candida MIC, C. albicans” value is on record as 3 (A grade of 3 represents an MIC of less than 1 mg/L). The “Candida MIC, C. glabrata” value in assay [14] was 3 (A grade of 3 represents an MIC of less than 1 mg/L). In assay [15], the “Candida MIC, C. krusei” value was 3 (A grade of 3 represents an MIC of less than 1 mg/L). The “Candida MIC, C. parapsilosis” value in [16] is 3 (A grade of 3 represents an MIC of less than 1 mg/L). Besides, the “Candida MIC, C. tropicalis” value in assay [17] was 3 (A grade of 3 represents an MIC of less than 1 mg/L).

With `COC(=O)Cn1ccc(-c2ccccc2)c1C(=O)C(=O)Nc1ccc(N2CCN(c3cc(C)cc(C)n3)CC2)cc1` [Example 74, (2-{4-[4-(4,6-Dimethyl-pyridin-2-yl)-piperazin-1-yl]-phenylaminooxalyl}-3-phenylpyrrol-1-yl)-acetic acid methyl ester], the “MIC grade, A. flavus” value in assay [1] and in assay [7] was 1 (a grade of 1 represents an MIC of greater than 10 mg/L) throughout. Besides, the “MIC grade, A. fumigatus 210” value in assay [2] and in [8] was 3 (A grade of 3 represents an MIC of less than 1 mg/L) throughout. Further, the “MIC grade, A. fumigatus” value in assay [3] and in assay [9] was 3 (A grade of 3 represents an MIC of less than 1 mg/L) each time. Also, the “MIC grade, A. niger” value in [4] and in assay [10] was 3 (A grade of 3 represents an MIC of less than 1 mg/L) each time. Also, the “MIC grade, A. terreus 49” value in [5] and in assay [11] was 2 (A grade of 2 represents an MIC of from 1 to 10 mg/L) in each case. For the same compound, the “MIC grade, A. terreus” value in assay [6] and in assay [12] was 2 (A grade of 2 represents an MIC of from 1 to 10 mg/L) each time. Besides, the “Candida MIC, C. albicans” value in [13] is 2 (A grade of 2 represents an MIC of from 1 to 10 mg/L). In addition, the “Candida MIC, C. glabrata” value in assay [14] was 3 (A grade of 3 represents an MIC of less than 1 mg/L). Further, the “Candida MIC, C. krusei” value in assay [15] is given as 2 (A grade of 2 represents an MIC of from 1 to 10 mg/L). For the same compound, in assay [16], the “Candida MIC, C. parapsilosis” value is given as 3 (A grade of 3 represents an MIC of less than 1 mg/L). In addition, the “Candida MIC, C. tropicalis” value in assay [17] is 3 (A grade of 3 represents an MIC of less than 1 mg/L).
